Reference: patent US20090240027A1, “INTERMEDIATES FOR MACROCYCLIC COMPOUNDS” (Tranzyme Pharma Inc., priority 2003, published 2009)

molecular target: T1, motilin receptor (Oryctolagus cuniculus, UniProt G1T803); experiment: Rabbit duodenum contractility assay (Method B4); settings: not given
T1 construct: Duodenal segments were vertically suspended in organ chambers; from tissue; host or cells: rabbit duodenum segments
Description: Compounds of the present invention have shown significant antagonist activity in this assay.
Rabbit Duodenum Contractility Assay
Duodenal segments were vertically suspended in organ chambers of 10 mL filled with Krebs buffer and connected to an isotonic force transducer, with a preload of 1 g. After a stabilization period, the muscle strips were challenged with 10^−4 M acetylcholine and washed. This was repeated until a stable maximal contraction was obtained (2-3 times), with an interval of at least 20 minutes.
After a stable base line was reached, test compounds were added to the bath. After 15 min incubation, a dose response to motilin was recorded by adding logarithmically increasing concentrations of motilin to the bath (final concentration 10^−9 to 10^−6 M). A blank experiment (no test compound present) was also performed. At the end of the dose response curve, a supramaximal dose of acetylcholine (10^−4 M) was given and this response was used as a reference (100% contraction).
The results of experiments at different concentrations of test compound were combined and analyzed to derive the pA2 value from the Schild plot.

T1 sequence (G1T803 1-400): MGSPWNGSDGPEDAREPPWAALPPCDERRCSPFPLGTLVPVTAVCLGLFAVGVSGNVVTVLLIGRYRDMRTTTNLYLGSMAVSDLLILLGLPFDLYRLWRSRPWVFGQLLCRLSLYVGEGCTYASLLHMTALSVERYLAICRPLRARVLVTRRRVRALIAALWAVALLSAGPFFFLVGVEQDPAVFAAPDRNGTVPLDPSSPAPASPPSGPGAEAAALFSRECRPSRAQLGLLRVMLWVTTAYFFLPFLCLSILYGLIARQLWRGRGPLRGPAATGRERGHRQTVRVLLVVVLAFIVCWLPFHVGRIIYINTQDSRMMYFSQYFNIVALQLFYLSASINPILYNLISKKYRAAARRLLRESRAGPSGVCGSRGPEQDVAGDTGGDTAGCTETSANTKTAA

SMILES	Kb [nM]
CCC[C@@H]1NC(=O)[C@@H](C(C)C)NC(=O)[C@@H](Cc2cccc(OC)c2)NCCOc2ccccc2CCCNC1=O [Compound 165]	67.6

molecular target: human motilin receptor (Homo sapiens, UniProt O43193); experiment: Competitive radioligand binding assay (Method B1); design: purchased PerkinElmer 6110544; host or cells: CHO cells, stably transfected (membranes); settings: Radioligand competitive binding assay, Method B1; values reported as ranges; read-out: Ki (binding activity)
Sequence (O43193 whole entry): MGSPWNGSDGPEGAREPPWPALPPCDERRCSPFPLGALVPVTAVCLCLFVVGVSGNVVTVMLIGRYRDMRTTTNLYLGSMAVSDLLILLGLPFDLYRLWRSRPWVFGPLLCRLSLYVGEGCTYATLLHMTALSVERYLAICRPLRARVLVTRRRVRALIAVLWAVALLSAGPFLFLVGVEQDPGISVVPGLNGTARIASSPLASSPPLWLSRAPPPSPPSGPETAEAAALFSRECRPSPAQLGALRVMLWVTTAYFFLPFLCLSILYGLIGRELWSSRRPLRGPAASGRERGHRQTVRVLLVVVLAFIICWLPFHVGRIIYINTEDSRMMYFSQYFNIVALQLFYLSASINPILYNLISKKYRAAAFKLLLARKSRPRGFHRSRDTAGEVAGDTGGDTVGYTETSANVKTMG
Description: Competitive Radioligand Binding Assay (Motilin Receptor)
• Membranes were prepared from CHO cells stably transfected with the human motilin receptor and utilized at a quantity of 1.5 μg/assay point.
Final Test Concentrations (N=11) for Compounds:
Compounds were provided frozen on dry ice at a stock concentration of 10 mM diluted in 100% DMSO and stored at −20° C. until the day of testing. On the test day, compounds were allowed to thaw at room temperature and than diluted in assay buffer according to the desired test concentrations. Under these conditions, the maximum final DMSO concentration in the assay was 0.5%.
Plates are sealed with TopSeal-A, vortexed gently and incubated at room temperature for 2 hours. The reaction is arrested by filtering samples through pre-soaked (0.3% polyethyleneimine, 2 h) Multiscreen Harvest plates using a Tomtec® Harvester (Tomtec, Hamden, Conn.)), washed 9 times with 500 μL of cold 50 mM Tris-HCl (pH 7.4), and than plates are air-dried in a fumehood for 30 minutes. A bottom seal is applied to the plates prior to the addition of 25 μL of MicroScint-0™ to each well.
Data are analyzed by GraphPad™ Prism (GraphPad Software, San Diego, Calif.) using a variable slope non-linear regression analysis.
where total and non-specific binding represent the cpm obtained in the absence or presence of 1 μM motilin, respectively.

Ki [nM]	SMILES
100 to 1000	CC(C)CC1NC(=O)C(C(C)C)NC(=O)C(Cc2cccc3ccccc23)NCCOc2cccnc2CCCNC1=O (stereo not drawn) [Compound 136]
100 to 1000	CC(C)CC1NC(=O)C(C(C)C)NC(=O)C(Cc2cccs2)NCCOc2cccnc2CCCNC1=O (stereo not drawn) [Compound 137]
100 to 1000	CC(C)CC1NC(=O)C(C(C)C)NC(=O)C(Cc2ccc(Cl)cc2)NCCOc2cccnc2CCCNC1=O (stereo not drawn) [Compound 139]
100 to 1000	CC(C)CC1NC(=O)C(C(C)C)NC(=O)C(Cc2ccc(F)cc2)NCCOc2cccnc2CCCNC1=O (stereo not drawn) [Compound 140]
1 to 100	COc1ccc(C[C@H]2NCCOc3ccccc3CCCNC(=O)[C@H](CC3CC3)NC(=O)[C@@H](C(C)C)NC2=O)cc1 [Compound 141]
1 to 100	CC(C)[C@H]1NC(=O)[C@@H](Cc2ccc(Cl)cc2)NCCOc2ccccc2CCCNC(=O)[C@H](CC2CC2)NC1=O [Compound 145]
100 to 1000	CC(C)C1NC(=O)C(Cc2ccc(Cl)cc2)NCCOc2cccnc2CCCNC(=O)C(CC2CC2)NC1=O (stereo not drawn) [Compound 150]
100 to 1000	COc1ccc(CC2NCCOc3ccccc3CCCNC(=O)C(CN)NC(=O)C(C(C)C)NC2=O)cc1 (stereo not drawn) [Compound 152]
100 to 1000	CC(C)C1NC(=O)C(Cc2cccc3ccccc23)NCCOc2ccccc2CCCNC(=O)C(CN)NC1=O (stereo not drawn) [Compound 153]
100 to 1000	CC(C)C1NC(=O)C(Cc2cccs2)NCCOc2ccccc2CCCNC(=O)C(CN)NC1=O (stereo not drawn) [Compound 154]
1 to 100	CC(C)[C@H]1NC(=O)[C@@H](Cc2cccc(Cl)c2)NCCOc2ccccc2CCCNC(=O)[C@H](CN)NC1=O [Compound 155]
1 to 100	CC(C)[C@H]1NC(=O)[C@@H](Cc2ccc(Cl)cc2)NCCOc2ccccc2CCCNC(=O)[C@H](CN)NC1=O [Compound 156]
100 to 1000	CC(C)C1NC(=O)C(Cc2ccc(F)cc2)NCCOc2ccccc2CCCNC(=O)C(CN)NC1=O (stereo not drawn) [Compound 157]
1 to 100	CC(C)[C@H]1NC(=O)[C@@H](Cc2cccc(Cl)c2)NCCOc2cccnc2CCCNC(=O)[C@H](CN)NC1=O [Compound 158]
100 to 1000	CCCC1NC(=O)C(C(C)CC)NC(=O)C(Cc2ccc(O)cc2)NCCOc2ccccc2CCCNC1=O (stereo not drawn) [Compound 159]
100 to 1000	CCCC1NC(=O)C(C(C)CC)NC(=O)C(Cc2ccc(O)cc2)NCCOc2ccccc2CCCNC1=O (stereo not drawn) [Compound 160]
100 to 1000	CCCC1NC(=O)C(C(C)C)NC(=O)C(Cc2ccc(CN)cc2)NCCOc2ccccc2CCCNC1=O (stereo not drawn) [Compound 161]
100 to 1000	CCCC1NC(=O)C(C(C)C)NC(=O)C(Cc2ccccc2C)NCCOc2ccccc2CCCNC1=O (stereo not drawn) [Compound 162]
1 to 100	CCC[C@@H]1NC(=O)[C@@H](C(C)C)NC(=O)[C@@H](Cc2cccc(C)c2)NCCOc2ccccc2CCCNC1=O [Compound 163]
100 to 1000	CCC[C@@H]1NC(=O)[C@@H](C(C)C)NC(=O)[C@@H](Cc2ccc(C)cc2)NCCOc2ccccc2CCCNC1=O [Compound 164]
100 to 1000	CCCC1NC(=O)C(C(C)C)NC(=O)C(Cc2ccccc2OC)NCCOc2ccccc2CCCNC1=O (stereo not drawn) [Compound 166]
100 to 1000	CCCC1NC(=O)C(C(C)C)NC(=O)CC(Cc2cccc(Cl)c2)NCCOc2ccccc2CCCNC1=O (stereo not drawn) [Compound 169]
1 to 100	CCC[C@@H]1NC(=O)[C@@H](C(C)C)NC(=O)[C@@H](Cc2ccc(Cl)c(Cl)c2)NCCOc2ccccc2CCCNC1=O [Compound 170]
1 to 100	CCC[C@@H]1NC(=O)[C@@H](C(C)C)NC(=O)[C@@H](Cc2ccc(F)c(F)c2)NCCOc2ccccc2CCCNC1=O [Compound 171]
1 to 100	CCC[C@@H]1NC(=O)[C@@H](C(C)C)NC(=O)[C@@H](Cc2ccc(OC)c(OC)c2)NCCOc2ccccc2CCCNC1=O [Compound 172]
100 to 1000	CCCC1NC(=O)C(C(C)C)NC(=O)C(Cc2ccc(O)cc2)NCCOc2ccccc2CCNC1=O (stereo not drawn) [Compound 177]
100 to 1000	COc1ccc(CC2NCCOc3ccccc3CCCNC(=O)C(CO)NC(=O)C(C(C)C)NC2=O)cc1 (stereo not drawn) [Compound 178]
100 to 1000	CC(C)C1NC(=O)C(Cc2cccc3ccccc23)NCCOc2ccccc2CCCNC(=O)C(CO)NC1=O (stereo not drawn) [Compound 179]

SMILES	Ki [nM]
CCC[C@@H]1NC(=O)[C@@H](C(C)C)NC(=O)[C@@H](Cc2cccc(OC)c2)NCCOc2ccccc2CCCNC1=O [Compound 165]	1 to 100
